Measured values published in US20100197495A1, “Synergistic Mixtures and/or Compositions With a High Fungicidal Activity” (priority 2005, published 2010).

Tested on: Plasmopara viticola
Assay: 7-day preventive activity on Plasmopara viticola on vines, preventive leaf application (greenhouse test)
Assay type: in vivo
Set-up: key to Activity (y): scale 100 = healthy plant to 0 = completely infected plant
Protocol: Efficacy of the mixtures of one or more compounds belonging to the FOS and SIN groups of compounds in the control of Plasmopara viticola on vines in preventive leaf application (greenhouse test) (Table 1-Table 3) and of the compositions of said mixtures with a further fungicidal component (Table 4).
Leaves of cultivar Merlot vines, grown in vases, in a conditioned environment (20±1° C., 70% relative humidity) are treated by spraying both sides of the leaves with the mixtures under examination dispersed in an aqueous solution containing a 0.3% of tween 20.
After remaining 7 days in a conditioned environment, the plants are infected on the lower side with an aqueous suspension of spores of Plasmopara viticola (200,000 spores per cm^3).
The plants are kept in a humidity saturated environment, at 21° C., for the incubation period of the fungus and, at the end of this period (7 days), the fungicidal activity is evaluated according to an evaluation percentage scale from 100 (healthy plant) to 0 (completely infected plant).
When the fungicidal activity found experimentally is greater than the value of E, this activity is considered a synergistic effect.

[1] = Table 4, alone, 32 ppm of equivalent metal copper
[2] = Table 4, alone, 125 ppm of equivalent phosphorous acid
[3] = compound alone, 250 ppm of equivalent phosphorous acid, scale 100 (healthy plant) to 0 (completely infected plant)

## CC(=O)Oc1ccccc1C(=O)[O-].CC(=O)Oc1ccccc1C(=O)[O-].[Cu+2] [Cu(ASA)2]
[1]
  % activity of each single compound: Cu(ASA)2: 32 ppm*** (45) %

## [Cu+2].c1ccc2c(c1)-c1nc-2nc2[n-]c(nc3nc(nc4[n-]c(n1)c1ccccc41)-c1ccccc1-3)c1ccccc21 [Cu(II) phthalocyanine, copper phthalocyanine]
SIN compound alone, 32 ppm of equivalent metal
  Activity (y): 10
[1]
  % activity of each single compound: (8) %

## O=C(O)c1ccccc1[O-].O=C(O)c1ccccc1[O-].[Cu+2] [Cu(SA)]
[1]
  % activity of each single compound: Cu(SA): 32 ppm*** (42) %

## O=[PH]([O-])[O-].[Cu+2] [CuHPO3, copper (II) salt of phosphorous acid]
Table 3, alone, 250 ppm of equivalent phosphorous acid
  % activity of each single compound: CuHPO3: 250 ppm** (55) %
[2]
  % activity of each single compound: CuHPO3: 125 ppm** (32) %
[3]
  Activity (y): 55

## O=c1ccc2cc(O[C@@H]3O[C@H](CO)[C@@H](O)[C@H](O)[C@H]3O)c(O)cc2o1 [Esculin, esculin]
SIN compound alone, 25 ppm
  Activity (y): 10

## COC(=O)CC(NC(=O)[C@@H](NC(=O)OC(C)C)C(C)C)c1ccc(Cl)cc1 (stereo partly drawn) [IR5885, methyl [S—(R,S)]-[3-(N-isopropoxycarbonylvalinyl)-amino]-3-(4-chlorophenyl)propanoate]
Table 4, alone, 0.45 ppm
  % activity of each single compound: IR5885: 0.45 ppm (41) %

## COC(=O)[C@@H](C)N(C(=O)Cc1ccccc1)c1c(C)cccc1C [IR6141, methyl N-(phenylacetyl)-N-2,6-xylyl-R-alaninate]
Plasmopara viticola, Table 4, alone, 5 ppm, read-out: % activity of each single compound
  inhibition at 5 ppm: 45%

## [C-]#N.[C-]#N.[C-]#N.[C-]#N.[C-]#N.[C-]#N.[C-]#N.[C-]#N.[C-]#N.[C-]#N.[C-]#N.[C-]#N.[C-]#N.[C-]#N.[C-]#N.[C-]#N.[C-]#N.[C-]#N.[Fe+2].[Fe+2].[Fe+2].[Fe+3].[Fe+3].[Fe+3].[Fe+3] [Prussian blue]
SIN compound alone, 250 ppm
  Activity (y): 32
Table 3, alone, 125 ppm
  % activity of each single compound: Prussian blue: 125 ppm (5) %
Table 4, alone, 125 ppm
  % activity of each single compound: Prussian blue: 125 ppm (5) %

## O=[PH]([O-])[O-].[Zn+2] [ZnHPO3, zinc salt of phosphorous acid]
[2]
  % activity of each single compound: ZnHPO3: 125 ppm** (18) %
[3]
  Activity (y): 35

## [O]=[Zn] [ZnO, zinc oxide]
SIN compound alone, 250 ppm
  Activity (y): 30
Table 3, alone, 125 ppm
  % activity of each single compound: ZnO: 125 ppm (14) %
Table 4, alone, 125 ppm
  % activity of each single compound: ZnO: 125 ppm (14) %

## silicic acid
SIN compound alone, 14 ppm of equivalent metal
  Activity (y): 14

## titanium dioxide [TiO2]
SIN compound alone, 250 ppm
  Activity (y): 13
Table 3, alone, 125 ppm
  % activity of each single compound: TiO2: 125 ppm (3) %
Table 4, alone, 125 ppm
  % activity of each single compound: TiO2: 125 ppm (3) %
